Reference: patent US6440968B1, “Use of maduraohtalazine derivatives as inhibitors of proinflammatory cytokines” (Elbion G.m.b.H., priority 1999, dated 2002)

Legend:
[1] = test system: pulmonary infiltration of eosinophils; experiment: Inhibition of the late phase eosinophilia 24 h after challenge of actively sensitized guinea pigs by ovalbumin inhalation; assay type: in vivo, Dunkin-Hartley guinea pigs; conditions: 10 mg/kg i.p. 2 h before challenge, bronchoalveolar lavage 24 h after ovalbumin challenge; for Eosinophils B = eosinophils in the substance-treated group with ovalbumin challenge: mean
Description: The inhibition of the pulmonary infiltration of eosinophils by the substances is examined in an in vivo test on Dunkin-Hartley guinea pigs which have been actively sensitized against ovalbumin. The sensitization is effected by two subcutaneous injections of a suspension of 10 μg of ovalbumin together with 1 mg of aluminium hydroxide in 0.5 m of physiological saline as adjuvant at an interval of 14 days. 7 days after the second injection, the animals in the control group which are to be exposed to an ovalbumin aerosol are pretreated with mepyramine maleate (10 mg/kg i.p.) in order to protect from anaphylactic death. After 30 minutes, the animals are exposed in a plastic box for 30 sec to an ovalbumin aerosol (0.5 mg/m ) which is produced by an atomizer driven by compressed air (19.6 kPa). Control animals are exposed to an aerosol of physiological saline. 24 hours after the exposure to ovalbumin aerosol (challenge) the animals are anaesthetized with an overdose of ethylurethane (1.5 g/kg of body weight i.p.), and a bronchoalveolar lavage is carried out with 2×5 m of physiological saline. The lavage fluid is collected and centrifuged at 300 rpm for 10 min, and then the cell pellet is resuspended in 1 m of physiological saline. The eosinophils are stained using the Becton-Dickinson test kit (N.5877) for eosinophils and are counted in a Neubauer chamber. Each test includes 2 control groups (exposure to a physiological saline aerosol and exposure to an ovalbumin solution aerosol).
The test substances are administered intraperitoneally or orally as suspension in 10% polyethylene glycol 300 and 0.5% strength 5-hydroxyethylcellulose 2 hours before the allergen challenge. The control groups are treated with the vehicle in a form corresponding to the administration of the test substance. The number of animals in each control and test group is 3-10.

[2] = test system: IL-4 release from D10.G4.1 cells; experiment: Inhibition of IL-4 release from D10.G4.1 cells (D10); assay type: cell-based; conditions: D10 cells stimulated with anti-CD3 antibody, IL-4 ELISA of supernatants
Description: (§1) To determine the effect of the compounds according to the invention on the said cytokines, the inhibition of the release of IL-2,IL-4 and IL-5 from T cells was investigated in vitro.
3 days after thawing and cultivating D10 cells in medium (RPMI-1640 with HEPES/10% FCS/2 mM glutamine/100 U/m penicillin/100 mg/m streptomycin and 50 μM mercaptoethanol) with Rat Stim™ (Collaborative Biomedical Products, Bedford Mass.) they are spun down, washed with medium without Rat Stim™, seeded at a concentration of 40,000 to 60,000 cells per well in a microtitre plate and incubated at 37° C./5% CO2/100% humidity for 3.5 hours. The substances to be tested are then applied in various concentrations in each case 50μ per well. The determinations of the maximum value and spontaneous value each receive 50μ of medium/0.4% DMSO.
After a further 30 minutes of incubation, stimulation is carried out with in each case 50μ of anti-CD3 antibody (145-2C11, Cedarlane Laboratories Limited, Hornby/Ontario) per well (final dilution 1:100). The determination of the spontaneous value receives 50μ of medium. After incubation overnight, the supernatants are measured in an IL-4 ELISA (Pharmingen: capture mab: 18031D; detection mab: 18042 D). The IC50 determination was analysed by a logit-log plot.

[3] = test system: IL-5 release from D10.G4.1 cells; experiment: Inhibition of IL-5 release from D10.G4.1 cells (D10); assay type: cell-based; conditions: D10 cells stimulated with anti-CD3 antibody, IL-5 ELISA of supernatants
Description: as §1
3 days after thawing and cultivating D10 cells in medium (RPMI-1640 with HEPES/10% FCS/2 mM glutamine/100 U/m penicillin/100 mg/m streptomycin and 50 μM mercaptoethanol) with Rat Stirm™ (Collaborative Biomedical Products, Bedford Mass.) they are spun down, washed with medium without Rat Stim™, seeded at a concentration of 40,000 to 60,000 cells per well in a microtitre plate and incubated at 37° C./5% CO2/100% humidity for 3.5 hours. The substances to be tested are then applied in various concentrations in each case 50μ per well. The determinations of the maximum value and spontaneous value each receive 50μ d of medium/0.4% DMSO. After a further 30 minutes of incubation, stimulation is carried out with in each case 50μ of anti-CD3 antibody (145-2C11, Cedarlane Laboratories Limited, Hornby/Ontario) per well (final dilution 1:100). The determination of the spontaneous value receives 50μ of medium. After incubation overnight, the supernatants are measured in an IL-5 ELISA (Pharmingen: capture mab: 18051D; detection mab: 18062 D). The IC50 determination was analysed by a logit-log plot.

[4] = test system: IL-2 release from Jurkat cells; experiment: Inhibition of IL-2 release from Jurkat cells; assay type: cell-based; conditions: Homo sapiens; Jurkat cells stimulated with ionomycin/PMA, IL-2 ELISA of supernatants
Description: as §1
Jurkat cells (clone E6-1, batch F-12871, from ATCC, Rockville, Md.) are seeded at about 100,000 cells in 50μ per well in microtitre plates and preincubated in an incubator (5% CO2/37° C./100% humidity). The medium employed is RPMI-1640 with HEPES/10% FCS/2 mM glutamine/100 U/m penicillin/100 mg/m streptomycin and 50 μM mercaptoethanol. After 3 hours, the substances to be tested are applied in various concentrations (100μ per well). To determine the spontaneous value and maximum values, in each case only medium/0.2% DMSO is applied. 30 minutes after application of substance and incubation, stimulation is carried out with in each case 25μ of ionomycin (final concentration 1 μM, Sigma I-0634) and phorbol myristate acetate (PMA, final concentration 25 ng/m, Sigma P-8139) per well. The spontaneous value receives 50μ of medium in place of ionomycin/PMA. Incubation overnight is then carried out. The supernatants are measured undiluted in an IL-2 ELISA (Pharmingen, capture mab: 18951 D detection mab: 20672 D). The IC50 determination was analysed by a logit-log plot.

SMILES | IC50 [3] | melting point | further results
COc1c2c(c(O)c3c1C(=O)c1c(cc(O)c(C)c1O)C3=O)-c1c(cc3cn[nH]c(=O)c3c1O)CC2 [Compound 1, 10,12,15,16-Tetrahydroxy-8-methoxy-11-methyl-9,14-dioxo-6,7,9,14-tetrahydronaphthaceno[1,2-g]phthalazin-1-one] | 450 nM |  | Inhibition (of late phase eosinophilia) [1]: 112.4; Eosinophils B = eosinophils in the substance-treated group with ovalbumin challenge [1]: 0.51 10^6/animal; IC50 [2]: 860 nM; IC50 [4]: 80 nM
CCCn1ncc2cc3c(c(O)c2c1=O)-c1c(O)c2c(c(OC)c1CC3)C(=O)c1c(cc(O)c(C)c1O)C2=O [Compound 3, 2-Propyl-10,12,15,16-tetrahydroxy-8-methoxy-11-methyl-9,14-dioxo-6,7,9,14-tetrahydronaphthaceno[1,2-g]phthalazin-1-one] |  | 350 to 351 °C | IC50 [2]: 2910 nM
COc1c2c(c(O)c3c1C(=O)c1c(cc(O)c(C)c1O)C3=O)-c1c(cc3cnn(-c4ccccc4)c(=O)c3c1O)CC2 [Compound 5, 2-phenyl-10,12,15,16-tetrahydroxy-8-methoxy-11-methyl-9,14-dioxo-6,7,9, 14-tetrahydronaphthaceno[1,2-g]phthalazin-1-one] | 430 nM |  | Inhibition (of late phase eosinophilia) [1]: 85.0; Eosinophils B = eosinophils in the substance-treated group with ovalbumin challenge [1]: 0.85 10^6/animal; IC50 [4]: 200 nM
COc1c2c(c(O)c3c1C(=O)c1c(cc(O)c(C)c1O)C3=O)-c1c(cc3cnn(CCOC(C)=O)c(=O)c3c1O)CC2 [Compound 6, 2-(2-Acetoxyethyl)-10,12,15,16-tetrahydroxy-8-methoxy-11-methyl-9,14-dioxo-6,7,9,14-tetrahydronaphthaceno[1,2-g]phthalazin-1-one] |  | > 350 °C | 
Cc1c(O)cc2c(c1O)C(=O)c1c(O)c3c(c(O)c1C2=O)-c1c(cc2cnn(-c4ccccn4)c(=O)c2c1O)CC3 [Compound 9, 2-(2-Pyridyl)-8,10,12,15,16-pentahydroxy-11-methyl-9,14-dioxo-6,7,9,14-tetrahydronaphthaceno[1,2-g]phthalazin-1-one] |  | > 350 °C | 
COc1c2c(c(OC(C)=O)c3c1C(=O)c1c(cc(OC(C)=O)c(C)c1OC(C)=O)C3=O)-c1c(cc3cnn(-c4ccccc4)c(=O)c3c1OC(C)=O)CC2 [Compound 12, 2-Phenyl-10,12,15,16-tetraacetoxy-8-methoxy-11-methyl-9,14-dioxo-6,7,9,14-tetrahydronaphthaceno[1,2-g]phthalazin-1-one] |  | 273 °C | 
COc1c2c(c(O)c3c1C(=O)c1c(cc(O)c(C)c1O)C3=O)-c1c(cc3cnn(-c4ncc[nH]4)c(=O)c3c1O)CC2 [Compound 15, 2-(2-Imidazolyl)-10,12,15,16-tetrahydroxy-8-methoxy-11-methyl-9,14-dioxo-6,7,9,14-tetrahydronaphthaceno[1,2-g]phthalazin-1-one] |  | > 350 °C (dec.) | 
C=CCc1cc2c(c(O)c1C)C(=O)c1c(OC)c3c(c(O)c1C2=O)-c1c(cc2cnn(-c4ccccc4)c(=O)c2c1O)CC3 [Compound 17, 2-Phenyl-12-allyl-10,15,16-trihydroxy-8-methoxy-11-methyl-9,14-dioxo-6,7,9,14-tetrahydronaphthaceno[1,2-g]phthalazin-1-one] |  | 163 °C | 

Second part, led by results:

IC50 [3] | melting point | SMILES | further results
880 nM |  | COc1c2c(c(O)c3c1C(=O)c1c(O)cc(O)cc1C3=O)-c1c(cc3c(C)nn(C)c(=O)c3c1O)CC2 [Compound 2, 2-Methyl-10,12,15,16-tetrahydroxy-8-methoxy-1-methyl-9,14-dioxo-6,7,9,14-tetrahydronaphthaceno[1,2-g]phthalazin-1-one] | IC50 [2]: 1460 nM
 | > 300 °C | COc1c2c(c(O)c3c1C(=O)c1c(cc(O)c(C)c1O)C3=O)-c1c(cc3cnn(CCO)c(=O)c3c1O)CC2 [Compound 4, 2-(2-Hydroxyethyl)-10,12,15,16-tetrahydroxy-8-methoxy-11-methyl-9,14-dioxo-6,7,9,14-tetrahydronaphthaceno[1,2-g]phthalazin-1-one] | 
 | > 350 °C | COC(=O)Oc1cc2c(c(O)c1C)C(=O)c1c(OC)c3c(c(O)c1C2=O)-c1c(cc2cnn(-c4ccccc4)c(=O)c2c1O)CC3 [Compound 7, 2-Phenyl-10,15,16-trihydroxy-8-methoxy-12-methoxycarbonyloxy-11-methyl-9,14-dioxo-6,7,9,14-tetrahydronaphthaceno[1,2-g]phthalazin-1-one] | 
780 nM | > 350 °C (dec.) | COc1c2c(c(O)c3c1C(=O)c1c(cc(O)c(C)c1O)C3=O)-c1c(cc3cnn(CCN)c(=O)c3c1O)CC2 [Compound 8, 2-(2-Aminoethyl)-10,12,15,16-tetrahydroxy-8-methoxy-11-methyl-9,14-dioxo-6,7,9,14-tetrahydronaphthaceno[1,2-g]phthalazin-1-one] | IC50 [2]: 2580 nM
 | > 350 °C | Cc1c(O)cc2c(c1O)C(=O)c1c(O)c3c(c(O)c1C2=O)-c1c(cc2cnn(-c4ccccc4)c(=O)c2c1O)CC3 [Compound 10, 2-Phenyl-8,10,12,15,16-pentahydroxy-11-methyl-9,14-dioxo-6,7,9,14-tetrahydronaphthaceno[1,2-g]phthalazin-1-one] | 
 | 285 °C | CCOC(Cn1ncc2cc3c(c(O)c2c1=O)-c1c(O)c2c(c(OC)c1CC3)C(=O)c1c(cc(O)c(C)c1O)C2=O)OCC [Compound 11, 2-(2,2-Diethoxyethyl)-10,12,15,16-tetrahydroxy-8-methoxy-11-methyl-9,14-dioxo-6,7,9,14-tetrahydronaphthaceno[1,2-g]phthalazin-1-one] | 
520 nM |  | COc1c2c(c(O)c3c1C(=O)c1c(cc(O)c(C)c1O)C3=O)-c1c(cc3cnn(-c4ccccn4)c(=O)c3c1O)CC2 [Compound 16, 2-(2-Pyridyl)-10,12,15,16-tetrahydroxy-8-methoxy-11-methyl-9,14-dioxo-6,7,9,14-tetrahydronaphtbaceno[1,2-g]phthalazin-1-one] | 
